Data taken from patent publication US9617310B2 (priority 2013, dated 2017).

What follows are molecules tested on genotype 4a stable HCV replicon (ED43) in Huh-7-derived cells (assay: Stable subgenomic HCV replicon, genotype 4a, Renilla luciferase). Conditions: Hepatitis C virus, 72 h, read-out: EC50 4A RLUC.
Type: cell-based
Description: Antiviral potency (EC50) was determined in both stable subgenomic HCV replicon cell lines and transient-transfected HCV replicon cells. The term half maximal effective concentration (EC50) refers to the concentration of a drug which induces a response halfway between the baseline and maximum after the exposure time specified below.
Stable subgenomic HCV replicons for genotype 1a, 1b, 2a, 3a, and 4a were established in Huh-7-derived cells as described by Lohmann et al (Lohmann V, Korner F, Koch J, et al Replication of subgenomic hepatitis C virus RNAs in a hepatoma cell line. Science 1999; 285:119-3). Each stable cell line contains a bicistronic HCV replicon that encodes a humanized Renilla luciferase (hRLuc) reporter gene fused to a selectable neomycin-resistance gene, followed by an EMCV IRES and the NS3-NS5B coding region of HCV. […] Luciferase activity was measured as a marker for intracellular HCV replication levels.
The genotype 1a stable replicon was derived from the H77 HCV strain and contained adaptive mutations P1496L and S2204I. The genotype 1b stable replicon was derived from the Con1 HCV strain and contained adaptive mutations E1202G, T1280I, and K1846T. […] The genotype 3a stable replicon was derived from the S52 HCV strain and contained adaptive mutations P1121 L, A1198T and S2210I (equivalent to S2204I in genotype 1). The genotype 4a stable replicon was derived from the ED43 HCV strain and contained adaptive mutations Q1691R and S2204I. All replicon cell lines were propagated in Huh-7-derived cells and maintained in Dulbecco's modified Eagle's Medium (DMEM) supplemented with 10% fetal bovine serum (FBS) and 0.5 mg/ml G418.
To perform EC50 assays, cells from each HCV replicon were dispensed into 384-well plates. Compounds were dissolved in DMSO at a concentration of 10 mM and diluted in DMSO using an automated pipetting instrument. Three-fold serially diluted compounds were directly added to the cells using an automated instrument. DMSO was used as a negative (solvent; no inhibition) control, and a combination of three HCV inhibitors including a protease inhibitor; an NS5A inhibitor and a nucleoside inhibitor was used at concentrations >100×EC50 as a positive control (100% inhibition). Seventy-two hours later, cells were lysed and Renilla luciferase activity were quantified as recommended by the manufacturer (Promega-Madison, Wis.). Non-linear regression was performed to calculate […], values.

Compound	EC50
COc1ccc2nc3c(nc2c1)O[C@@H]1C[C@@H](C(=O)N[C@]2(C(=O)NS(=O)(=O)C4CC4)C[C@H]2C(F)F)N(C1)C(=O)[C@H](C(C)(C)C)NC(=O)O[C@H]1[C@H](CCCCC3)C[C@H]2C[C@H]21 [Example 7, (1aR,1bS,5S,8S,10R,22aR,23aR)-5-tert-butyl-N-[(1R,2R)-1-[(cyclopropylsulfonyl)carbamoyl]-2-(difluoromethyl)cyclopropyl]-14-methoxy-3,6-dioxo-1a,1b,3,4,5,6,9,10,18,19,20,21,22,22a,23,23a-hexadecahydro-1H,8H-7,10-methanocyclopropa[3′,40]cyclopenta[1′,2′:18,19][1,10,3,6]dioxadiazacyclononadecino[11,12-b]quinoxaline-8-carboxamide]	55 nM
CC(C)(C)[C@@H]1NC(=O)O[C@@H]2C[C@@H]3C[C@@H]3[C@H]2CCCCC(F)(F)c2nc3ccccc3nc2O[C@@H]2C[C@@H](C(=O)N[C@]3(C(=O)NS(=O)(=O)C4CC4)C[C@H]3C(F)F)N(C2)C1=O [Example 18]	4.2 nM
CC(C)(C)[C@@H]1NC(=O)O[C@@H]2C[C@@H]3C[C@@H]3[C@H]2CCCCC(F)(F)c2nc3ccc(OC(F)F)cc3nc2O[C@@H]2C[C@@H](C(=O)N[C@]3(C(=O)NS(=O)(=O)C4CC4)C[C@H]3C(F)F)N(C2)C1=O [Example 16, (1aS,2aR,6S,9S,11R,23aR,23bS)-6-tert-butyl-N-[(1R,2R)-1-[(cyclopropylsulfonyl)carbamoyl]-2-(difluoromethyl)cyclopropyl]-15-(difluoromethoxy)-19,19-difluoro-4,7-dioxo-1a,2,2a,4,5,6,7,10,11,19,20,21,22,23,23a,23b-hexadecahydro-1H,9H-8,11-methanocyclopropa[4′,5′]cyclopenta [1′,2′:18,19][1,10,3,6]dioxadiazacyclononadecino[11,12-b]quinoxaline-9-carboxamide]	2.3 nM
COc1ccc2nc3c(nc2c1)O[C@@H]1C[C@@H](C(=O)N[C@]2(C(=O)NS(=O)(=O)C4(C)CC4)C[C@H]2C(F)F)N(C1)C(=O)[C@H](C(C)(C)C)NC(=O)O[C@@H]1C[C@@H]2C[C@@H]2[C@H]1CCCCC3 [Example 2, (1aS,2aR,6S,9S,11R,23aR,23bS)-6-tert-butyl-N-[(1R,2R)-2-(difluoromethyl)-1-{[(1-methylcyclopropyl)sulfonyl]carbamoyl}cyclopropyl]-15-methoxy-4,7-dioxo-1a,2,2a,4,5,6,7,10,11,19,20,21,22,23,23a,23b-hexadecahydro-1H,9H-8,11-methanocyclopropa[4′,5′]cyclopenta[1′,2′18,19][1,10,3,6]dioxadiazacyclononadecino[11,12-b]quinoxaline-9-carboxamide]	1.2 nM
COc1ccc2nc3c(nc2c1)O[C@@H]1C[C@@H](C(=O)N[C@]2(C(=O)NS(=O)(=O)C4(C)CC4)C[C@H]2CC(F)F)N(C1)C(=O)[C@H](C(C)(C)C)NC(=O)O[C@@H]1C[C@@H]2C[C@@H]2[C@H]1CCCCC3(F)F [Example 20, (1aS,2aR,6S,9S,11R,23aR,23bS)-6-tert-butyl-N-[(1R,2S)-2-(2,2-difluoroethyl)-1-{[(1-methylcyclopropyl)sulfonyl]carbamoyl}cyclopropyl]-19,19-difluoro-15-methoxy-4,7-dioxo-1a,2,2a,4,5,6,7,10,11,19,20,21,22,23,23a,23b-hexadecahydro-1H,9H-8,11-methanocyclopropa[4′,5′]cyclopenta[1′,2′:18,19][1,10,3,6]dioxadiazacyclononadecino[11,12-b]quinoxaline-9-carboxamide]	5 nM
COc1ccc2nc3c(nc2c1)O[C@@H]1C[C@@H](C(=O)N[C@]2(C(=O)NS(=O)(=O)C4(C)CC4)C[C@H]2C(F)F)N(C1)C(=O)[C@H](C(C)(C)C)NC(=O)O[C@@H]1C[C@@H]2C[C@@H]2[C@H]1CCCCC3(F)F [Example 10, (1aS,2aR,6S,9S,11R,23aR,23bS)-6-tert-butyl-N-[(1R,2R)-2-(difluoromethyl)-1-{[(1-methylcyclopropyl)sulfonyl]carbamoyl}cyclopropyl]-19,19-difluoro-15-methoxy-4,7-dioxo-1a,2,2a,4,5,6,7,10,11,19,20,21,22,23,23a,23b-hexadecahydro-1H,9H-8,11-methanocyclopropa [4′,5′]cyclopenta[1′,2′:18,19][1,10,3,6]dioxadiazacyclononadecino[11,12-b]quinoxaline-9-carboxamide]	1.3 nM
CC(C)(C)[C@@H]1NC(=O)O[C@@H]2C[C@@H]3C[C@@H]3[C@H]2CCCCC(F)(F)c2nc3ccccc3nc2O[C@@H]2C[C@@H](C(=O)N[C@]3(C(=O)NS(=O)(=O)C4(C)CC4)C[C@H]3C(F)F)N(C2)C1=O [Example 17]	4.8 nM
COc1ccc2nc3c(nc2c1)O[C@@H]1C[C@@H](C(=O)N[C@]2(C(=O)NS(=O)(=O)C4CC4)C[C@H]2C(F)F)N(C1)C(=O)[C@H](C(C)(C)C)NC(=O)O[C@@H]1[C@H]2CC[C@H](C2)[C@H]1CCCCC3 [Example 4, (1R,4S,4aR,8S,11S,13R,25aR)-8-tert-butyl-N-[(1R,2R)-1-[(cyclopropylsulfonyl)carbamoyl]-2-(difluoromethyl)cyclopropyl]-17-methoxy-6,9-dioxo-2,3,4,4a,6,7,8,9,12,13,21,22,23,24,25,25a-hexadecahydro-1H,11H-1, 4:10,13-dimethanoquinoxalino[2,3-k][1,10,3,6]benzodioxadiazacyclononadecine-11-carboxamide]	3.1 nM
COc1ccc2nc3c(nc2c1)O[C@@H]1C[C@@H](C(=O)N[C@]2(C(=O)NS(=O)(=O)C4CC4)C[C@H]2C(F)F)N(C1)C(=O)[C@H](C(C)(C)C)NC(=O)O[C@@H]1C[C@@H]2C[C@@H]2[C@H]1CCCCC3(F)F (racemic) [Example 9, (1aS,2aR,6S,9S,11R,23aR,23bS)-6-tert-butyl-N-[(1R,2R)-1-[(cyclopropylsulfonyl)carbamoyl]-2-(difluoromethyl)cyclopropyl]-19,19-difluoro-15-methoxy-4,7-dioxo-1a,2,2a,4,5,6,7,10,11,19,20,21,22,23,23a,23b-hexadecahydro-1H,9H-8,11-methanocyclopropa[4′,5′]cyclopenta[1′,2′:18,19][1,10,3,6]dioxadiazacyclononadecino[11,12-b]quinoxaline-9-carboxamide]	1.4 nM
COc1ccc2cc3c(nc2c1)O[C@@H]1C[C@@H](C(=O)N[C@]2(C(=O)NS(=O)(=O)C4CC4)C[C@H]2C(F)F)N(C1)C(=O)[C@H](C(C)(C)C)NC(=O)O[C@@H]1C[C@@H]2C[C@@H]2[C@H]1CCCCC3 [Example 21, (1aS,2aR,6S,9S,11R,23aR,23bS)-6-tert-butyl-N-[(1R,2R)-1-[(cyclopropylsulfonyl)carbamoyl]-2-(difluoromethyl)cyclopropyl]-15-methoxy-4,7-dioxo-1a,2,2a,4,5,6,7,10,11,19,20,21,22,23,23a,23b-hexadecahydro-1H,9H-8,11-methanocyclopropa[4′,5′]cyclopenta[1′,2′:18,19][1,10,3,6]dioxadiazacyclononadecino[11,12-b]quinoline-9-carboxamide]	1.4 nM
CC(C)(C)[C@@H]1NC(=O)O[C@@H]2C[C@@H]3C[C@@H]3[C@H]2CCCCCc2nc3ccc(Cl)cc3nc2O[C@@H]2C[C@@H](C(=O)N[C@]3(C(=O)NS(=O)(=O)C4CC4)C[C@H]3C(F)F)N(C2)C1=O [Example 19, (1aS,2aR,6S,9S,11R,23aR,23bS)-6-tert-butyl-15-chloro-N-[(1R,2R)-1-[(cyclopropylsulfonyl)carbamoyl]-2-(difluoromethyl)cyclopropyl]-4,7-dioxo-1a,2,2a,4,5,6,7,10,11,19,20,21,22,23,23a, 23b-hexadecahydro-1H,9H-8,11-methanocyclopropa[4′,5′]cyclopenta[1′,2′:18,19][1,10,3,6]dioxadiazacyclononadecino[11,12-b]quinoxaline-9-carboxamide]	1.8 nM
CC(C)(C)[C@@H]1NC(=O)O[C@@H]2C[C@@H]3C[C@@H]3[C@H]2CC/C=C/C(F)(F)c2nc3ccc(C#N)cc3nc2O[C@@H]2C[C@@H](C(=O)N[C@]3(C(=O)NS(=O)(=O)C4(C)CC4)C[C@H]3C(F)F)N(C2)C1=O [Example 13, (1aS,2aR,6S,9S,11R,20E,23aR,23bS)-6-tert-butyl-15-cyano-N-[(1R,2R)-2-(difluoromethyl)-1-{[(1-methylcyclopropyl)sulfonyl]carbamoyl}cyclopropyl]-19,19-difluoro-4,7-dioxo-1a,2,2a,4,5,6,7,10,11,19,22,23,23a,23b-tetradecahydro-1H,9H-8,11-methanocyclopropa[4′,5′]cyclopenta[1′,2′18,19][1,10,3,6]dioxadiazacyclononadecino[11,12-b]quinoxaline-9-carboxamide]	3.6 nM
